For one assay, the target named is IKZF2 (Homo sapiens, UniProt Q96SW2+Q9UKS7). The assay is described as follows: HEK293 HiBiT in vitro degradation of IKZF2. The assay is classed as cell-based. Also noted: expressed in transfected cells. As to conditions: for DC50 / IKZF2 Dmax: HEK293 HiBiT; for DC50: 18-24 hr incubation, normalized to DMSO control, read-out: IKZF2 EC50; for IKZF2 Dmax / Dmax: maximum degradation at the highest concentration tested; for Dmax: HEK293, HEK293 HiBiT. The procedure:
(§1) In vitro degradation of IKZF1, IKZF2, and SALL4 was measured using HiBiT protein tagging and detection technology (Promega).
(§2) HiBit technology was used to develop the quantitative assays to measure the cellular IKZFs level by tagging an 11 amino acid HiBit peptides […] to the protein of interest. Reporter plasmids were generated by fusing a linker sequence ([…]) followed by the HiBit tag at the C-terminus of IKZF1, IKZF2, and SALL4. The fusion fragments were subsequently cloned into pcDNA5 pcDNA™5/FRT/TO plasmids (Thermo Fisher, cat #V652020) downstream of the tetracycline operator. The resulting plasmids were co-transfected with pOG44 Flp-Recombinase Expression Vector (Thermo Fisher, cat #V600520) into Flp-In™ T-REx HEK293 line (Thermo Fisher, cat #R78077) and a stable cell pool was selected by adding 100 µg/ml of Hygromycin (Thermo Fisher, cat #10687010). The reporter cell enabled Tet-On inducible reporter expression from a single copy of the integrated gene.
(§3) On Day 1, Cells were grown to ˜80% confluency in tissue culture medium (DMEM Glutamax (Gibco10569), 10% Tet free FBS (Takara 631106), and PenStrep Glutamin (Gibco 10378)) in tissue culture flasks. Doxycycline was then added to a final concentration of […] to induce reporter expression at 37° C. overnight.
(§4) On Day 2, 125 nL of serially-diluted solution of testing compounds were dispensed into 384-well white solid assay plates via ECHO acoustic liquid handler. Cells were lifted by 0.25% Trypsin (Gibco 25200) then pelleted by centrifugation (Beckman Avanti J-E) at 500×g for 5 min. Cell pellets were resuspended in TC medium at the concentration of 3e5/mL and 25 μL of cell suspension were added into each well of compound-spotted plates. The plates were returned to a 37° C. incubator overnight (18-24 hr).
(§5) On Day 3, assay plates were removed from the tissue culture incubator and 25 μL of Nano-Glo lytic detection system (Promega, cat #N3030) was added to each well. Plates were incubated at r.t. for 3 min with shaking, and luminescence was read using an Envision reader (Perkin Elmer).
(§6) To assess the IKZF1, IKZF2, and SALL4 degrader potential of exemplified compounds of this disclosure and certain Reference Compounds EC50 and Dmax values were determined for the compounds of Examples 1 to 383 and Reference Compounds A-1, B-1, B-2, B-3, B-4, and C-1 in the HiBiT assays. Asterisks (*) indicate examples for which the data shown represents an average of n≥3.
For orientation: HiBiT is a short tag that completes a luciferase, so light tracks the accessible tagged protein.

The target in another assay is T1, IKZF1 (Homo sapiens, UniProt Q13422+Q96SW2).
T1 construct: expressed in transfected cells
T1 sequence (Q13422 whole entry): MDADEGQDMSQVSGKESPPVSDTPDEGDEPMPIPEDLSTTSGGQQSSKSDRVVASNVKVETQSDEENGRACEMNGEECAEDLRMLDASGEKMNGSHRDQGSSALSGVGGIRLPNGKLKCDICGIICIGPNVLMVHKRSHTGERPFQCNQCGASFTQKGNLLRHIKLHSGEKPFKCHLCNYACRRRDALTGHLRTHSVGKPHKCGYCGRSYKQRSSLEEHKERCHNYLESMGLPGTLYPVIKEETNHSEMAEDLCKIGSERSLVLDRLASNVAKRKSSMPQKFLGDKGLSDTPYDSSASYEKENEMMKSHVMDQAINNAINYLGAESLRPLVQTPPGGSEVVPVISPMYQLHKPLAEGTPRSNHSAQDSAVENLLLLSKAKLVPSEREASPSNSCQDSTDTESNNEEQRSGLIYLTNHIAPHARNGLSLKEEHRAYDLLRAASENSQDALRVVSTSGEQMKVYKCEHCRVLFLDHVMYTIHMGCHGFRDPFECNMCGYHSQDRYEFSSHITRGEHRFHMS
T1 sequence (Q96SW2 whole entry): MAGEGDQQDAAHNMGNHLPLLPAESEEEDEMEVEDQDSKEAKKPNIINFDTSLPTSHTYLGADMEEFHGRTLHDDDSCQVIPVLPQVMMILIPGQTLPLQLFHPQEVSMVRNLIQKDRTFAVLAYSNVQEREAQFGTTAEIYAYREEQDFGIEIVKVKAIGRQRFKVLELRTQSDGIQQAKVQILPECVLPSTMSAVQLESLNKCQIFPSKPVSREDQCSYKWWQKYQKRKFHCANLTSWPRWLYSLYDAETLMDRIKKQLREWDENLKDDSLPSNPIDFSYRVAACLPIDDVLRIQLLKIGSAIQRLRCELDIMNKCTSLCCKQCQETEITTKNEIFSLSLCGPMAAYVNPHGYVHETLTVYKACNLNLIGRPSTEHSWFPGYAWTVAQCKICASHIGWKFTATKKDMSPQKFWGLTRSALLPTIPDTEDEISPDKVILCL
T1 sequence (Q16531 whole entry partner): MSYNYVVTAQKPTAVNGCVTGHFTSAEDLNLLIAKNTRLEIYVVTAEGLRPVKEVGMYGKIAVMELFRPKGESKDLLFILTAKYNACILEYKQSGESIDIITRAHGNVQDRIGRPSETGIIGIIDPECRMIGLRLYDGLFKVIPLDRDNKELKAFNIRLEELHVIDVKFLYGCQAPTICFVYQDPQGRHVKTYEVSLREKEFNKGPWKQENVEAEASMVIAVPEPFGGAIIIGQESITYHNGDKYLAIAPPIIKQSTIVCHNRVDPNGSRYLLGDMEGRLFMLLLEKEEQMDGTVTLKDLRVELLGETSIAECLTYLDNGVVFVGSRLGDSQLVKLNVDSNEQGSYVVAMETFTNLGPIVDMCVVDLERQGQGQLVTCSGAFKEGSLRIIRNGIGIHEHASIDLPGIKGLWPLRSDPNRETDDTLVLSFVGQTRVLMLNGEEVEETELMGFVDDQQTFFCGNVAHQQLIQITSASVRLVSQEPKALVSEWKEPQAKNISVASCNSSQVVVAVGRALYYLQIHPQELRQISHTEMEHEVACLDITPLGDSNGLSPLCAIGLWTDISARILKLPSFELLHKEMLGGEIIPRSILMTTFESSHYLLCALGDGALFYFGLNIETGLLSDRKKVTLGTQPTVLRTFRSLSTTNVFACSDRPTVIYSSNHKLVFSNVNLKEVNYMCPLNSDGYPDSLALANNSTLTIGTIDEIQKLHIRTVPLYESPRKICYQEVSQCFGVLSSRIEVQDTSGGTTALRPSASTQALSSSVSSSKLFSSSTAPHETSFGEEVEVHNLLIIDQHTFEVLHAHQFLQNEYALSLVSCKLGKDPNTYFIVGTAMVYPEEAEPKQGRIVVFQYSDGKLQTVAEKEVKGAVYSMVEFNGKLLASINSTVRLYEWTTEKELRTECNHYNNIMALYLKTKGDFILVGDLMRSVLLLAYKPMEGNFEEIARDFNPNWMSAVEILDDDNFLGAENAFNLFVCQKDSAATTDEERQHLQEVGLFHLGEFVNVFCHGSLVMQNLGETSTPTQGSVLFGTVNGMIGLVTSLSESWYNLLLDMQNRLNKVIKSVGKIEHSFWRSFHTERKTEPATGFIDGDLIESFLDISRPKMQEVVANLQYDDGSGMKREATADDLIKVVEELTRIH
Nature of the assay: HEK293 HiBiT in vitro degradation of IKZF1. As to conditions: for DC50 / IKZF1 Dmax: HEK293 HiBiT; for DC50: 18-24 hr incubation, normalized to DMSO control, read-out: IKZF1 EC50; for Dmax: HEK293, HEK293 HiBiT; for Dmax / IKZF1 Dmax: maximum degradation at the highest concentration tested. The assay is classed as cell-based. The procedure: as §1, §2, §3, §4, §5, §6

Chain of IKZF2 (Q9UKS7 1-500 isoform Q9UKS7-2): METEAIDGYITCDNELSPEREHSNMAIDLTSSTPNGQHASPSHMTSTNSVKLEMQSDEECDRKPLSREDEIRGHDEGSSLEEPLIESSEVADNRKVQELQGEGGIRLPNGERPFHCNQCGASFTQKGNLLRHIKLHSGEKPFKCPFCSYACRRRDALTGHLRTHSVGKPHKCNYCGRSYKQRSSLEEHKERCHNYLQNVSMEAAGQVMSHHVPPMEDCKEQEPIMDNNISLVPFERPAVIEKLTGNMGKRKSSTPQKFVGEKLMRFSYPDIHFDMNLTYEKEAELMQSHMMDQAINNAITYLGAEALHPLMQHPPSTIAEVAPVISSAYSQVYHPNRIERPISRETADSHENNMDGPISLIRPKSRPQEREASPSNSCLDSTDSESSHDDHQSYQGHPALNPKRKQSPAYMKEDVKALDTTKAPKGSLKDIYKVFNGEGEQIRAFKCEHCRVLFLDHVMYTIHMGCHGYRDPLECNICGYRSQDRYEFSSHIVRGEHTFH
Chain of IKZF2 (Q96SW2 whole entry): as the sequence (Q96SW2 whole entry) above
Chain of IKZF2 (Q16531 whole entry partner): as the sequence (Q16531 whole entry partner) above

For `CC(N[C@H]1CCCC[C@@H]1Cc1ccc2c(c1)CN(C1CCC(=O)NC1=O)C2=O)C1(C#N)CC1` (single isomer, unassigned) [Example 255], on IKZF2, the DC50 was 32 nM and the “IKZF2 Dmax” value worked out at 87%. Further, the DC50 at IKZF1 was greater than 1000 nM.

Turning to `CC1(C)CCC(N[C@H]2CCCO[C@@H]2Cc2ccc3c(c2F)CN(C2CCC(=O)NC2=O)C3=O)C1` (single isomer, unassigned) [Example 258], at IKZF2, the Dmax (usually the greatest extent of degradation seen) was 97% and the DC50 worked out at 4 nM. For the same molecule, at IKZF1, the greatest degradation seen (Dmax) amounted to 30% and the DC50 turned out to be 78 nM.

Take `CC1(C)CCC(N[C@H]2CCCO[C@@H]2Cc2ccc3c(c2F)CN(C2CCC(=O)NC2=O)C3=O)C1` (single isomer, unassigned) [Example 259]: at IKZF2, the DC50 amounted to 11 nM and the “IKZF2 Dmax” value is given as 96%. Moreover, at IKZF1, the DC50 came to 68 nM and the “IKZF1 Dmax” value is listed as 25%.

For `O=C1CCC(N2Cc3cc(C[C@H]4CCCC[C@@H]4NC4CCCOC4)ccc3C2=O)C(=O)N1` (single isomer, unassigned) [Example 260], on IKZF2, the Dmax is 96% and the DC50 was found to be 5 nM. Further, the DC50 on IKZF1 was greater than 1000 nM.

Take `O=C1CCC(N2Cc3cc(C[C@H]4CCCC[C@@H]4NC4CCCOC4)ccc3C2=O)C(=O)N1` (single isomer, unassigned) [Example 261]: the results for the DC50 on IKZF2 and on IKZF1 were 6 nM and greater than 1000 nM, respectively. Further, on IKZF2, the “IKZF2 Dmax” value is given as 96%.

For `O=C1CCC(N2Cc3c(ccc(C[C@H]4OCCC[C@@H]4NC4CCCOC4)c3F)C2=O)C(=O)N1` (single isomer, unassigned) [Example 262], at IKZF2, the greatest degradation seen (Dmax) was 85% and the DC50 came to 72 nM. On IKZF1, the DC50 was greater than 1000 nM.

`O=C1CCC(N2Cc3c(ccc(C[C@H]4OCCC[C@@H]4NC4CCCOC4)c3F)C2=O)C(=O)N1` (single isomer, unassigned) [Example 263]: at IKZF2, the DC50 was 95 nM and the “IKZF2 Dmax” value stood at 85%. Moreover, on IKZF1, the DC50 is greater than 1000 nM.

In the case of `COCC1CCC(N[C@H]2CCCO[C@@H]2Cc2ccc3c(c2F)CN(C2CCC(=O)NC2=O)C3=O)CC1` (single isomer, unassigned) [Example 264], on IKZF2, the Dmax amounted to 96% and the DC50 came to 6 nM. For the same molecule, on IKZF1, the DC50 was greater than 1000 nM.

As to `N#CC1CCC(N[C@H]2CCCC[C@@H]2Cc2ccc3c(c2)CN(C2CCC(=O)NC2=O)C3=O)CC1` (single isomer, unassigned) [Example 268], on IKZF2, the DC50 amounted to 6 nM and the “IKZF2 Dmax” value was 98%. In addition, on IKZF1, the DC50 worked out at 76 nM and the “IKZF1 Dmax” value is reported as 62%.

In the case of `N#CCC1CCC(N[C@H]2CCCC[C@@H]2Cc2ccc3c(c2)CN(C2CCC(=O)NC2=O)C3=O)CC1` (single isomer, unassigned) [Example 269], at IKZF2, the greatest degradation seen (Dmax) was 96% and the DC50 stood at 3 nM. On IKZF1, the greatest degradation seen (Dmax) was 40% and the DC50 was 266 nM.

Turning to `N#CCC1CCC(N[C@H]2CCCC[C@@H]2Cc2ccc3c(c2)CN(C2CCC(=O)NC2=O)C3=O)CC1` (single isomer, unassigned) [Example 270], at IKZF2, the DC50 turned out to be 8 nM and the “IKZF2 Dmax” value is 98%. On IKZF1, the DC50 stood at 179 nM and the “IKZF1 Dmax” value was 22%.

As to `O=C1CCC(N2Cc3cc(C[C@H]4CCCC[C@@H]4NC4CCC5(CC4)CC5(F)F)ccc3C2=O)C(=O)N1` (single isomer, unassigned) [Example 271], at IKZF2, the Dmax stood at 98% and the DC50 is 2 nM. Moreover, on IKZF1, the Dmax amounted to 44% and the DC50 came out at 45 nM.

As to `CC1(C)OCCC1N[C@H]1CCCC[C@@H]1Cc1ccc2c(c1)CN(C1CCC(=O)NC1=O)C2=O` (single isomer, unassigned) [Example 273], on IKZF2, the greatest degradation seen (Dmax) was determined as 93% and the DC50 stood at 23 nM. Moreover, the DC50 at IKZF1 is greater than 1000 nM.

In the case of `CC1(C)OCCC1N[C@H]1CCCC[C@@H]1Cc1ccc2c(c1)CN(C1CCC(=O)NC1=O)C2=O` (single isomer, unassigned) [Example 274], at IKZF2, the DC50 was found to be 12 nM and the “IKZF2 Dmax” value is 97%. In addition, on IKZF1, the Dmax was found to be 35% and the DC50 was 102 nM.

Regarding `CC1(C)CCCC(N[C@H]2CCCC[C@@H]2Cc2ccc3c(c2)CN(C2CCC(=O)NC2=O)C3=O)C1` (single isomer, unassigned) [Example 275], on IKZF2, the greatest degradation seen (Dmax) is 96% and the DC50 was 4 nM. Moreover, the DC50 on IKZF1 is greater than 1000 nM.

As to `CC1(C)CCCC(N[C@H]2CCCC[C@@H]2Cc2ccc3c(c2)CN(C2CCC(=O)NC2=O)C3=O)C1` (single isomer, unassigned) [Example 276], at IKZF2, the DC50 was determined as 3 nM and the “IKZF2 Dmax” value came out at 97%. The DC50 at IKZF1 was greater than 1000 nM.

For the molecule `COC1CCC(N[C@H]2CCCC[C@@H]2Cc2ccc3c(c2)CN(C2CCC(=O)NC2=O)C3=O)CC1` (single isomer, unassigned) [Example 278], on IKZF2, the DC50 came out at 4 nM and the “IKZF2 Dmax” value turned out to be 98%. At IKZF1, the DC50 was found to be 125 nM and the “IKZF1 Dmax” value was 37%.

Consider `CC1CCC(N[C@H]2CCCC[C@@H]2Cc2ccc3c(c2)CN(C2CCC(=O)NC2=O)C3=O)CC1` (single isomer, unassigned) [Example 279], for which, at IKZF2, the Dmax is 95% and the DC50 was 3 nM. In addition, at IKZF1, the Dmax turned out to be 30% and the DC50 worked out at 51 nM.

For `CC1CCC(N[C@H]2CCCC[C@@H]2Cc2ccc3c(c2)CN(C2CCC(=O)NC2=O)C3=O)CC1` (single isomer, unassigned) [Example 280], at IKZF2, the DC50 came to 3 nM and the “IKZF2 Dmax” value is reported as 98%. Further, at IKZF1, the DC50 was found to be 70 nM and the “IKZF1 Dmax” value is recorded as 29%.

As for `O=C1CCC(N2Cc3c(ccc(C[C@H]4OCCC[C@@H]4NC4CCC(C(F)F)CC4)c3F)C2=O)C(=O)N1` (single isomer, unassigned) [Example 282], at IKZF2, the Dmax amounted to 95% and the DC50 came out at 7 nM. In addition, on IKZF1, the DC50 was greater than 1000 nM.

In the case of `CC(C)OC1CCC(N[C@H]2CCCO[C@@H]2Cc2ccc3c(c2F)CN(C2CCC(=O)NC2=O)C3=O)CC1` (single isomer, unassigned) [Example 284], on IKZF2, the Dmax came to 97% and the DC50 was found to be 5 nM. The DC50 at IKZF1 is greater than 1000 nM.

`CC(C)OC1CCC(N[C@H]2CCCO[C@@H]2Cc2ccc3c(c2F)CN(C2CCC(=O)NC2=O)C3=O)CC1` (single isomer, unassigned) [Example 285]: on IKZF2, the DC50 was 8 nM and the “IKZF2 Dmax” value stood at 94%. On IKZF1, the Dmax is 37% and the DC50 was determined as 124 nM.

Regarding `O=C1CCC(N2Cc3cc(C[C@H]4CCCC[C@@H]4NC4CCC45COC5)ccc3C2=O)C(=O)N1` (single isomer, unassigned) [Example 286], on IKZF2, the Dmax came to 96% and the DC50 amounted to 27 nM. Moreover, on IKZF1, the Dmax is 33% and the DC50 was determined as 223 nM.

The molecule `CCC(C)N[C@H]1CCCO[C@@H]1Cc1ccc2c(c1F)CN(C1CCC(=O)NC1=O)C2=O` (single isomer, unassigned) [Example 292] gave a Dmax on IKZF2 of 94%. Besides, the DC50 at IKZF2 was 7 nM; on IKZF1 it was greater than 1000 nM.

For `CCC(C)N[C@H]1CCCO[C@@H]1Cc1ccc2c(c1F)CN(C1CCC(=O)NC1=O)C2=O` (single isomer, unassigned) [Example 293], on IKZF2, the DC50 amounted to 8 nM and the “IKZF2 Dmax” value was 94%. The DC50 on IKZF1 was greater than 1000 nM.

Regarding `CCC(C)N[C@H]1CCCC[C@@H]1Cc1ccc2c(c1F)CN(C1CCC(=O)NC1=O)C2=O` (single isomer, unassigned) [Example 294], the greatest degradation seen (Dmax) on IKZF2 was 97%; on IKZF1 it was 59%. In addition, the DC50 turned out to be 2 nM at IKZF2 and 912 nM on IKZF1.

Take `CCC(C)N[C@H]1CCCC[C@@H]1Cc1ccc2c(c1F)CN(C1CCC(=O)NC1=O)C2=O` (single isomer, unassigned) [Example 295]: on IKZF2, the DC50 came to 1 nM and the “IKZF2 Dmax” value was 97%. Also, on IKZF1, the DC50 came to 283 nM and the “IKZF1 Dmax” value turned out to be 43%.

The record behind these values is patent publication US11897862B2 (Gilead Sciences, Inc., priority 2022, dated 2024).
